{"source": "patent US20250032636A1", "about": "“Phage-Drug Conjugate” (The University of Sydney, priority 2021, published 2025)", "key": {"P. aeruginosa W.T. PAO1": {"test_system": "P. aeruginosa W.T. PAO1", "test": "Minimum inhibitory concentration (MIC), broth microdilution", "assay_type": "cell-based, Pseudomonas aeruginosa", "details": "37° C., 24 h", "description": "The minimum inhibitory concentration (MIC) of the antimicrobial agents was measured using the broth microdilution technique. A bacterial culture medium with 10^5-10^6 CFU mL^−1 was prepared freshly in Mueller-Hinton (MH) broth and added to a 2-fold serial dilution of antimicrobial agents in 96-well microplates. A cell-only control and a medium-only control were also included in the same microplate. The 96-well microplates were incubated at 37° C. for 24 h. MIC was determined to be the concentration of antimicrobial agents at which the optical density (OD600) was equal to that of a medium-only control using a multimode microplate reader (VICTOR™ X4, Perkin-Elmer). The MIC can also be recorded as the lowest concentration preventing visible bacterial growth after 24 h."}, "P. aeruginosa biofilm [1]": {"test_system": "P. aeruginosa biofilm", "test": "Biofilm dispersal assay, crystal violet staining of biofilm biomass", "assay_type": "cell-based, Pseudomonas aeruginosa PAO1", "description": "(§1) A Pseudomonas aeruginosa PAO1 inoculum was freshly prepared by inoculating one colony in 10 mL of LB broth and incubating on an orbital shaker at 220 rpm at 37° C. for 16-17 h. The bacterium culture medium was diluted 200-fold to an optical density at 600 nm (OD600) between 0.003-0.005 in M9 minimal medium (containing 48 mM Na2HPO4, 22 mM KH2PO4, 9 mM NaCl, 19 mM NH4Cl, 2 mM MgSO4, 0.1 mM CaCl2), and 20 mM glucose, pH 7.0). This medium was freshly prepared for each experiment.\nFor the biofilm inhibition assay, various treatment formulations were added to the 24-well microtiter plates simultaneously as cell culture media placement. The plates were incubated on an orbital shaker at 180 rpm for 6 h incubation at 37° C. For this 6 h biofilm dispersal assay, the plates were incubated on an orbital shaker at 180 rpm for 6 h at 37° C. for biofilm formation. Planktonic bacteria were removed, and 1 mL of fresh M9 minimal medium was added to each well, followed by each treatment addition. […]\nThe concentrations of each component used for the treatments would be based on their individual effects on biofilm dispersal. […]\n(§2) The biofilm biomass was analysed by crystal violet (CV) staining. The biofilm on each well surface of the plates was washed once with 1 mL PBS before CV staining. 1 mL of 0.1% CV solution made by a 1:20 dilution of 2% CV aqueous solution in PBS. The CV stained biofilm was washed twice with 1 mL PBS after 20 min incubation. The remaining CV stained biofilm was dissolved in 33% glacial acetic acid and quantified by measuring the absorbance at 550 nm (OD550) using a multimode microplate reader (VICTOR™ X4, Perkin-Elmer). All biofilm assays were performed in two independent experiments.\n(§3) Biofilm dispersal and bacterial viability assays were conducted as described above using samples set out in Table 2. A graph illustrating the effects of different POEGA-b-PPFPA conjugated formulations on biofilm dispersal are shown in FIG. 13 and on biofilm cell survival are shown in FIG. 14."}, "P. aeruginosa biofilm [2]": {"test_system": "P. aeruginosa biofilm", "test": "Biofilm formation inhibition assay, crystal violet staining", "assay_type": "cell-based, Pseudomonas aeruginosa PAO1", "details": "6 h", "description": "as §1\nFor the biofilm inhibition assay, various treatment formulations were added to the 24-well microtiter plates simultaneously as cell culture media placement. The plates were incubated on an orbital shaker at 180 rpm for 6 h incubation at 37° C. For this 6 h biofilm dispersal assay, the plates were incubated on an orbital shaker at 180 rpm for 6 h at 37° C. for biofilm formation. Planktonic bacteria were removed, and 1 mL of fresh M9 minimal medium was added to each well, followed by each treatment addition. The plates were incubated for a further 2.5-3 h before quantifying the biofilm biomass and viabilities of biofilm bacteria.\nas §2"}, "[3]": {"test_system": "P. aeruginosa biofilm bacteria", "test": "Biofilm bacteria viability by CFU counting (drop-plate method)", "assay_type": "cell-based, Pseudomonas aeruginosa PAO1", "details": "FIG. 8; single component alone (AMK 4 or 8 μg/mL, nitroxide 2 mM, phage 10^6 PFU/mL); 2 h treatment", "description": "The cells in the treated and untreated groups were counted using the drop-plated method to determine the biofilm bacteria viability. Biofilms on the surface of the wells were rinsed with once 1 mL PBS and then were resuspended in 1 mL PBS. The 24-well plates were placed in an ultrasonication bath for 5 min before viable cells count assay. The re-suspended biofilm bacteria were serially diluted 10-fold (10^−1 to 10^−10) in PBS, and 10 μL of each dilution was dropped onto MH agar plates in duplicate, which were incubated at 37° C. overnight. The results are presented as CFU mL^−1. A graph illustrating the effects of different POEGA-b-PVBA conjugated formulations on biofilm cell survival are shown in FIG. 8.\nas §3"}, "P. aeruginosa biofilms": {"test_system": "P. aeruginosa biofilms", "test": "Confocal microscopy of LIVE/DEAD stained biofilms", "assay_type": "cell-based, Pseudomonas aeruginosa", "details": "nitroxide at 2 mM; LIVE/DEAD staining, FIG. 9", "description": "For microscopy analysis, P. aeruginosa biofilms were grown in glass-bottom 24-well plates (MatTek Corporation, Ashland MA, USA) for 6 h. After 3 h treatment, biofilms were rinsed twice with PBS before being stained with LIVE/DEAD® BacLight™ bacterial viability kit reagents (L-7007, Molecular Probes) according to the manufacturer's procedure. According to the manufacturer's procedure, 1 to 10 dilution of each of the two components was freshly prepared with PBS. 0.3 mL of the mixed solution was added to each well for 20 min incubation, and the plate was kept in the dark condition. The samples were analysed using confocal laser scanning microscopy (CLSM) with a Nikon A1 confocal microscope. Representative confocal images showing P. aeruginosa biofilms treated with POEGA-b-PVBA conjugated formulations are shown in FIG. 9."}}, "note": "Where two headings read alike, the source gives them in different places."}
{"smiles": "CC1(C)CC(N)CC(C)(C)N1[O]", "note": "[nitroxide, 4-amino-2,2,6,6-tetramethyl-piperidinyloxyl]", "values": [{"measurement": "MIC", "setting": "P. aeruginosa W.T. PAO1; MH broth", "value": 6, "unit": "mM"}, {"measurement": "P. aeruginosa biofilm dispersal", "setting": "P. aeruginosa biofilm [1]; comparative example, FIG. 13A, printed: nitroxide agent alone at AMK concentration of 8 μg/mL", "value": "about 30%"}, {"measurement": "reduction of biofilm biomass", "setting": "P. aeruginosa biofilm [1]; cotreatment study FIG. 7, nitroxide 2 mM, phage 10^6 PFU mL^−1, AMK 4 and 8 μg mL^−1, POEGA-b-PVBA linker, 2 h treatment", "value": "about 30%"}, {"measurement": "P. aeruginosa biofilm dispersal", "setting": "P. aeruginosa biofilm [1]; nitroxide alone at 2 mM, 6 h biofilm, 2 h treatment", "value": 30, "unit": "%"}, {"measurement": "P. aeruginosa biofilm dispersal", "setting": "P. aeruginosa biofilm [1]; nitroxide alone at 5 mM, 6 h biofilm, 2 h treatment", "value": 70, "unit": "%"}, {"measurement": "inhibition of biofilm formation", "setting": "P. aeruginosa biofilm [2]; nitroxide concentration range of 1 to 5 mM", "value": "significantly inhibited biofilm formation"}, {"measurement": "survival of biofilm bacteria", "setting": "[3]", "value": "did not affect"}, {"measurement": "biofilm biovolume, confocal", "setting": "P. aeruginosa biofilms", "value": "greatly reduced biofilm biovolume"}]}
{"smiles": "NCC[C@H](O)C(=O)N[C@@H]1C[C@H](N)[C@@H](O[C@H]2O[C@H](CN)[C@@H](O)[C@H](O)[C@H]2O)[C@H](O)[C@H]1O[C@H]1O[C@H](CO)[C@@H](O)[C@H](N)[C@H]1O", "note": "[AMK, amikacin]", "values": [{"measurement": "MIC", "setting": "P. aeruginosa W.T. PAO1; Pseudomonas aeruginosa, PAO1, MH broth, read-out: MIC", "value": 4, "unit": "µg/mL"}, {"measurement": "reduction of biofilm biomass of pre-established P. aeruginosa biofilm", "setting": "P. aeruginosa biofilm [1]; AMK alone at 32 μg mL^−1, 8×MIC, 6 h biofilm, 2 h treatment", "value": 10, "unit": "%"}, {"measurement": "effect on biofilm dispersal", "setting": "P. aeruginosa biofilm [1]; cotreatment study FIG. 7, AMK 4 or 8 μg/ml, phage 10^6 PFU mL^−1, 6 h biofilm, 2 h treatment", "value": "did not have an effect"}, {"measurement": "effect on inhibiting the formation of biofilms", "setting": "P. aeruginosa biofilm [2]; AMK at a higher concentration than 4 μg mL^−1", "value": "strong effect"}, {"measurement": "concentration at which biofilm formation was inhibited", "setting": "P. aeruginosa biofilm [2]; added with inoculated culture", "value": 4, "unit": "µg/mL"}, {"measurement": "survival of biofilm bacteria", "setting": "[3]", "value": "did not affect"}]}
